Common to all, as to assay: DTP human tumour cell line panel, 48 h
Assay [1] has as its system MDA-MB-231 breast.
Assay [2] has as its system RPMI-8226 leukemia.
The test system of assay [3] is IGROV1 ovarian.
Assay [4] concerns HCT-15 colon.
In assay [5] the test system is DU-145 prostate.
Assay [6] relates to MOLT-4 leukemia.
The test system of assay [7] is CCRF-CEM leukemia.
The test system of assay [8] is U251 CNS.
Assay [9] concerns MCF7 breast.
Assay [10] deals with HT29 colon.
The test system of assay [11] is SF-268 CNS.
The subject of assay [12] is OVCAR-4 ovarian.
Assay [13] concerns UO-31 renal.
The subject of assay [14] is SK-MEL-5 melanoma.
The subject of assay [15] is HCC-2998 colon.
The subject of assay [16] is CAKI-1 renal.
Assay [17] deals with OVCAR-3 ovarian.
The subject of assay [18] is HOP-92 NSCLC.
Assay [19] deals with SK-MEL-2 melanoma.

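All cell lines were grown in 96-well plates and treated with compound for 48 hours. TGI is the concentration that stops growth completely.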

Broadly, the TGI is the concentration at which net growth stops. On to `Cc1cc(C)nc(NS(=O)(=O)c2ccc(Nc3c4ccccc4nc4c(C(=O)NNCCO)cccc34)cc2)n1`, for which the TGI in assay [1], in assay [2], in [3], in assay [4], in assay [5] and in [6] was over 100 µM throughout. The TGI in assay [7], in assay [8], in [9], in [10], in assay [11] and in assay [12] was over 100 µM throughout. Also, the TGI in assay [13], in assay [14], in assay [15], in [16], in assay [17] and in assay [18] was over 100 µM each time. The compound further gave a TGI in assay [19] of over 100 µM.

As for `COc1cc(/C=C(\C#N)c2nc3ccccc3o2)ccc1O`, the TGI in assay [1] was 68.5 µM; in [2], 63.6 µM; in assay [3] it was 38.1 µM; in [4], 42.6 µM; in assay [5], 65.1 µM; in assay [6], over 100 µM. The TGI is over 100 µM in [7]; 36.2 µM in assay [8]; over 100 µM in assay [9]; 48.1 µM in assay [10]; 50.7 µM in assay [11]; 40.7 µM in [12]. For the same compound, the concentration for total growth inhibition (TGI) in [13] was 85.9 µM; in assay [14] it was 36.3 µM; in [15], 41.9 µM; in [16], 45.9 µM; in [17] it was 40.9 µM; in assay [18], 50.8 µM. In assay [19], the TGI stood at 47.3 µM.

As for `O=C(c1ccccc1)c1ccc2nc3n(c2c1)C(c1c(F)cccc1F)SC3` (stereo not drawn), the TGI in assay [1] is over 100 µM; in assay [2], over 100 µM; in assay [3] it was over 100 µM; in [4], over 59 µM; in assay [5] it was over 74 µM; in [6] it was 27.6 µM. The TGI is 37.6 µM in assay [7]; over 63.4 µM in assay [8]; 50.5 µM in assay [9]; 39.5 µM in [10]; over 70.2 µM in assay [11]; over 73.6 µM in assay [12]. For the same compound, the TGI in [13] was 56.5 µM; in assay [14], 18.1 µM; in assay [15], over 52.5 µM; in [16], 44.4 µM; in assay [17], 24.1 µM; in assay [18], over 100 µM. The compound further had a TGI in [19] of 31.2 µM.

For `CN1CCC2(CC1)SC[C@H]1C(=O)N(c3ccc(Cl)cc3)C(=O)N12`, the total growth inhibition concentration (TGI) in [1], in assay [2], in assay [3], in assay [4], in assay [5] and in assay [6] was over 100 µM throughout. Moreover, the TGI in assay [7], in [8], in assay [9], in [10], in [11] and in [12] was over 100 µM in each case. For the same compound, the TGI in assay [13], in assay [14], in [15], in assay [16], in [17] and in [18] was over 100 µM in each case. In assay [19], the TGI is over 100 µM.

Take `O=c1[nH]c(C23CC4CC(CC(C4)C2)C3)cc2c1c(=O)oc1ccccc12`: the TGI in assay [1] is 10.8 µM; in [2] it was 15.1 µM; in assay [3], 13 µM; in assay [4], 81.3 µM; in assay [5], 22 µM; in assay [6], over 100 µM. For the same compound, the TGI was 42.7 µM in [7]; 7.55 µM in [8]; over 41 µM in assay [9]; 15.7 µM in assay [10]; 9.52 µM in assay [11]; 14 µM in assay [12]. The TGI came to 4.23 µM in [13]; 18.3 µM in assay [14]; 19.6 µM in [15]; 7.03 µM in assay [16]; 17.5 µM in assay [17]; 6.48 µM in [18]. The TGI in assay [19] was 38.7 µM.

For `CC1(C)CN=C(c2ccc3c(c2)Cc2cc(C4=NCC(C)(C)N4)ccc2-3)N1`, the TGI in [1] was over 100 µM; in assay [2], 65.8 µM; in assay [3] it was over 100 µM; in assay [4] it was over 100 µM; in assay [5], over 100 µM; in [6], over 100 µM. Moreover, the TGI in [7] was over 100 µM; in assay [8], 64.8 µM; in [9], 86.5 µM; in assay [10], over 100 µM; in [11] it was over 100 µM; in [12], over 100 µM. The TGI in assay [13] is over 100 µM; in assay [14] it was over 100 µM; in assay [15], 74.1 µM; in assay [16], over 100 µM; in [17], over 100 µM; in assay [18] it was over 100 µM. The TGI in assay [19] was 49.9 µM.

Take `CC12CCC3[C@@H](CC3(C)C)C(O)(CCC1=O)C2` (stereo partly drawn): the TGI in assay [1], in assay [2], in [3], in [4], in [5] and in assay [6] was over 100 µM throughout. The TGI in assay [7], in assay [8], in assay [9], in assay [10], in assay [11] and in assay [12] was over 100 µM each time. Further, the concentration for total growth inhibition (TGI) in assay [13], in assay [14], in assay [15], in assay [16], in [17] and in assay [18] was over 100 µM in each case. Also, the TGI in [19] is over 100 µM.

These data come from PubChem BioAssay (NCI).
